Assays:
[1] = test system: human endometrial stromal cells (HESC); experiment: Decidualization assay, phalloidin staining of actin cytoskeleton; assay type: cell-based
Experimental: Decidualization studies: The above compounds were investigated originally for the treatment of endometriosis. The compounds were tested in a decidualization assay using human endometrial stromal fibroblast (HESC) cells. In preparation for the possibility of embryonic attachment, the stromal cells in the endometrium undergo extensive waves of proliferation, remodeling, and terminal differentiation that transforms the endometrium into an endocrine gland, called decidua. This transformation is called decidualization and it is under the control by ovarian hormones.
The level of apoptosis increases from the proliferative phase through menstrual cycle and peaks at menses. […] However if the cells are subjected to conditions that induce decidualization, stromal cells will begin to differentiate instead of undergoing apoptosis.
Rationale of this assay is described above in mechanism of action studies section. Briefly, human stromal endometrial cells were plated in the presence and absence of progesterone and allow undergoing decidualization. The cells treated with test compounds of different concentrations and stained for actin cytocketal morphology using phalloidin staining and monitored under fluorescent microscope.

CCRF-CEM = experiment: NCI-60 screening, Leukemia; assay type: cell-based, human
U251 = experiment: NCI-60 screening, CNS Cancer; assay type: cell-based, human
SN12C = experiment: NCI-60 screening, Renal Cancer; assay type: cell-based, human
SF-539 = experiment: NCI-60 screening, CNS Cancer; assay type: cell-based, human

C#CC(F)(F)[C@]1(O)CCC2C3CCC4=CC(=O)CCC4=C3C(c3ccc(C4CC4)cc3)C[C@@]21C (stereo partly drawn) [EC330, 17α-(1,1-difluoro-2-propyn-1-yl)-17β-hydroxy-11β-[4-p-(cyclopropyl)phenyl]estra-4,9-dien-3-one]
actin cytoskeletal disruption (phalloidin staining) [1]: cytoskeletal disruption | TGI (log10TGI) (CCRF-CEM): <−8.00 | TGI (log10TGI) (U251): −5.78 | TGI (log10TGI) (SN12C): −4.58 | TGI (log10TGI) (SF-539): −7.77
